Values of other authors as cited in patent publication US20130084272A1, “COMPOSITIONS, KITS AND METHODS FOR NUTRITIONAL SUPPLEMENTATION WITH TWELVE CARBON CHAIN FATTY ACIDS AND TWELVE CARBON CHAIN ACYLGLYCEROLS” (priority 2011, published 2013).

Tested on: exotoxins from Gram-positive bacteria
Conditions: Peterson et al. 2006; cited from earlier work

CCCCCCCCCCCC(=O)OCC(O)CO (stereo not shown) [monolaurin, glycerol monolaurate]
Effect on exotoxins from Gram-positive bacteria: inhibit the effects of exotoxins
